GI50, EC50 and IC50 data for 7 compounds are collected here from patent publication US7557099B2, “Pyrrolobenzodiazepines as key intermediates in the synthesis of dimeric cytotoxic pyrrolobenzodiazepines” (Spirogen Limited, priority 2004, dated 2009).

Where two headings read alike, the source gives them in different places. Some results are limits rather than exact numbers.

The GI50 is the concentration that inhibits growth by half. A low value points to greater sensitivity of the cells. By EC50 is commonly meant the concentration that produces a half-maximal response. The IC50 is the point on the concentration scale where inhibition reaches its midpoint.

Assay [1] has as its system approximately 60 human tumour cell lines. Kind of assay: NCI 60 cell screen, SRB assay. It counts as cell-based. The following applies: Homo sapiens, 48 hour continuous exposure. The protocol:
The National Cancer Institute (NCI), Bethesda, Md., USA has available an in vitro cytotoxicity screen which consists of approximately 60 human tumour cell lines against which compounds are tested at a minimum of five concentrations each differing 10-fold. A 48 hour continuous exposure protocol is used, where cell viability or growth is estimated with an SRB protein assay.
The test compounds were evaluated against approximately 60 human tumour cell lines. The NCI screening procedures were described in detail by Monks and co-workers (Monks, A et al., Journal of the National Cancer Institute, 1991, 83, 757). Briefly, cell suspensions were diluted according to the particular cell type and the expected target cell density (5000-40,000 cells per well based on cell growth characteristics), and added by pipette (100 μL) into 96-well microtitre plates. The cells were allowed a preincubation period of 24 hours at 37° C. for stabilisation. Dilutions at twice the intended test concentration were added at time zero in 100 μL aliquots to the wells. The test compounds were evaluated at five 10-fold dilutions (10^−4, 10^−5, 10^−6, 10^−7 and 10^−[…]). The test compounds were incubated for 48 hours in 5% CO2 atmosphere and 100% humidity. The cells were then assayed using the sulphorhodamine B assay. A plate reader was used to read the optical densities and a microcomputer processed the readings into GI50 values (in Moles), which is the dosage required to limit cell growth to 50%.

The next assay concerns linear pBR322 DNA. The assay is described as follows: DNA cross-linking, electrophoretic assay (XL50). It counts as biochemical. The following applies: concentration giving 50% cross-linked plasmid DNA; 2 hours, 37° C., pH 7.2. The protocol: The extent of DNA cross-linking induced by each PBD dimer was determined using the electrophoretic assay method of Hartley, et al. (Hartley, J. A., Berardini, M. D., and Souhami, R. L. (1991) Anal. Biochem. 193, 131-134) based on the principle that, following complete denaturation of linear pBR322 DNA (˜4,300 bp) to the single-stranded (SS) form, an interstrand cross-link results in renaturation to double-stranded (DS) in a neutral gel.
Closed-circular DNA was linearized with HindIII, then dephosphorylated and finally 5′-singly end-labelled using [γ^32P]-ATP and polynucleotide kinase. Reactions containing 30-40 ng of DNA and the test compound were carried out in aqueous TEOA (25 mM triethanolamine, 1 mM EDTA, pH 7.2) buffer at 37° C. in a final volume of 50 μl for 2 hours. Reactions were terminated by addition of an equal volume of stop solution (0.6 M NaOAc, 20 mM EDTA, 100 μg/ml tRNA) followed by precipitation with ethanol. Following centrifugation, the supernatant was discarded and the pellet dried by lyophilization. Samples were re-suspended in 10 μl of strand separation buffer (30% DMSO, 1 mM EDTA, 0.04% bromophenol blue and 0.04% xylene cylanol) and denatured by heating to 90° C. for 2.5 min, followed by immersion in an ice/water bath. Control non-denatured samples were re-suspended in 10 μl of non-denaturing buffer solution (0.6% sucrose, 0.04% bromophenol blue in aqueous TAE buffer [40 mM Tris, 20 mM acetic acid, 2 mM EDTA, pH 8.1]) and loaded directly onto the gel for comparison.
Electrophoresis was carried out for 14-16 h at 40 V using a 0.8% submerged agarose gel (20×25×0.5 cm) in TAE buffer. Gels were dried under vacuum for 2 hour at 80° C. onto one layer each of Whatman 3MM and DE8I filter papers using a BioRad 583 gel dryer. Autoradiographs were obtained after exposure of Hyperfilm-MP film (Amersham plc, U.K.) to the dried gel for either 4 hour with a screen (or over night, without a screen, to obtain a sharper image). Film bands were quantitated using a BioRad GS-670 imaging laser densitometer. Percentage cross-linking was calculated by measuring the total DNA in each lane (summed density for the double-stranded [DS] and single-stranded [SS] bands) relative to the amount of cross-linked DNA (density of DS band alone). A dose-response curve was derived by plotting drug concentration against the determined percentage level of cross-linked DNA which was then analysed to determine the concentration of test compound that results in 50% cross-linked plasmid DNA (XL50).

Assay [2] has as its system K562 human chronic myeloid leukaemia cells. The assay is described as follows: In vitro cytotoxicity, K562 cells, MTT assay. It counts as cell-based. The following applies: Homo sapiens. The procedure: K562 human chronic myeloid leukaemia cells were maintained in RPM1 1640 medium supplemented with 10% fetal calf serum and 2 mM glutamine at 37° C. in a humidified atmosphere containing 5% CO2 and were incubated with a specified dose of drug for 1 hour or 96 hours at 37° C. in the dark. The incubation was terminated by centrifugation (5 min, 300 g) and the cells were washed once with drug-free medium. Following the appropriate drug treatment, the cells were transferred to 96-well microtiter plates (10^4 cells per well, 8 wells per sample). Plates were then kept in the dark at 37° C. in a humidified atmosphere containing 5% CO2. The assay is based on the ability of viable cells to reduce a yellow soluble tetrazolium salt, 3-(4,5-dimethylthiazol-2-yl)-2,5-diphenyl-2H-tetrazolium bromide (MTT, Aldrich-Sigma), to an insoluble purple formazan precipitate. Following incubation of the plates for 4 days (to allow control cells to increase in number by approximately 10 fold), 20 μL of MTT solution (5 mg/mL in phosphate-buffered saline) was added to each well and the plates further incubated for 5 hours. The plates were then centrifuged for 5 minutes at 300 g and the bulk of the medium pipetted from the cell pellet leaving 10-20 μL per well. DMSO (200 μL) was added to each well and the samples agitated to ensure complete mixing. The optical density was then read at a wavelength of 550 nm on a Titertek Multiscan ELISA plate reader, and a dose-response curve was constructed. For each curve, an IC50 value was read as the dose required to reduce the final optical density to 50% of the control value.
A general note: Tetrazolium dyes change colour on reduction, which living cells bring about.

[3] abbreviates: 96 hr exposure, sub-table of 16e-j, read-out: IC50 96 hr exposure.
The mark [4] stands for this setting: 96 hr exposure, sub-table of 29a-c, read-out: IC50 96 hr exposure.
Where [5] appears, read: 1 hr exposure, read-out: IC50 1 hr exposure.

With `COc1ccc2c(c1)C(=O)N1CCC(OCCCCCCCCCOC3CCN4C(=O)c5cc(OC)ccc5N=C[C@@H]34)[C@@H]1C=N2` (stereo partly drawn) [Compound 16g, 1,1′-[(Nonane-1,9-diyl)dioxy]bis[(11aS)-7-methoxy-1,2,3,11a-tetrahydro-5H-pyrrolo[2,1-c][1,4]benzodiazepine-5-one]], in assay [1], the GI50 was 19 nM. Further, the EC50 in the assay with linear pBR322 DNA stood at 1500 nM. For the same compound, in assay [2] (setting [3]), the IC50 was 26 nM.
On the same counts, the results for `COc1ccc2c(c1)C(=O)N1CCC(OCCCCCCCCCCOC3CCN4C(=O)c5cc(OC)ccc5N=C[C@@H]34)[C@@H]1C=N2` (stereo partly drawn) [Compound 16h, 1,1′-[(Decane-1,10-diyl)dioxy]bis[(11aS)-7-methoxy-1,2,3,11a-tetrahydro-5H-pyrrolo[2,1-c][1,4]benzodiazepine-5-one]] are 54 nM, 5000 nM and 352 nM.
Consider `C=C1CN2C(=O)c3cc(OC)ccc3N=C[C@H]2C1OCCCCCCCCCCOC1C(=C)CN2C(=O)c3cc(OC)ccc3N=C[C@@H]12` (stereo partly drawn) [Compound 29c, 1,1′-[(Decane-1,10-diyl)dioxy]bis[(11aS)-7-methoxy-2-methylene-1,2,3,11a-tetrahydro-5H-pyrrolo[2,1-c][1,4]benzodiazepine-5-one]], for which the GI50 in assay [1] (sub-table of 29a-c) is 13.2 nM. For the same compound, in the assay with linear pBR322 DNA, the EC50 stood at 3900 nM. Further, in assay [2] (setting [4]), the IC50 amounted to 100 nM.
With `COc1ccc2c(c1)N=C[C@H]1C(OCCCCCCCCCCCCOC3CCN4C(=O)c5ccc(OC)cc5N=C[C@@H]34)CCN1C2=O` (stereo partly drawn) [Compound 9j, 1,1′-[(Dodecane-1,12-diyl)dioxy]bis[(11aS)-8-methoxy-1,2,3,11a-tetrahydro-5H-pyrrolo[2,1-c][1,4]benzodiazepine-5-one]], halving of growth in assay [1] (GI50) required 210 nM. For the same compound, the EC50 in the assay with linear pBR322 DNA is over 100000 nM. Further, the IC50 in assay [2] (setting [5]) stood at 9120 nM.
The compound `COc1ccc2c(c1)N=C[C@H]1C(OCCCCCCCCOC3CCN4C(=O)c5ccc(OC)cc5N=C[C@@H]34)CCN1C2=O` (stereo partly drawn) [Compound 9f, 1,1′-[(Octane-1,8-diyl)dioxy]bis[(11aS)-8-methoxy-1,2,3,11a-tetrahydro-5H-pyrrolo[2,1-c][1,4]benzodiazepine-5-one]] displayed a GI50 in assay [1] of 1170 nM. The EC50 in the assay on linear pBR322 DNA came out at 1800 nM. In addition, the IC50 in assay [2] (setting [5]) was 9720 nM.
Compound `COc1ccc2c(c1)N=C[C@H]1C(OCCCCCCCCCOC3CCN4C(=O)c5ccc(OC)cc5N=C[C@@H]34)CCN1C2=O` (stereo partly drawn) [Compound 9g, 1,1′-[(Nonane-1,9-diyl)dioxy]bis[(11aS)-8-methoxy-1,2,3,11a-tetrahydro-5H-pyrrolo[2,1-c][1,4]benzodiazepine-5-one]] registered a GI50 in assay [1] of 570 nM. Further, the midpoint of the response in the assay on linear pBR322 DNA, the EC50, lay at 980 nM. For the same compound, the IC50 in assay [2] (setting [5]) came out at 17300 nM.
Turning to `C=C1CN2C(=O)c3cc(OC)ccc3N=C[C@H]2C1OCCCCCCCCCOC1C(=C)CN2C(=O)c3cc(OC)ccc3N=C[C@@H]12` (stereo partly drawn) [Compound 29b, 1,1′-[(Nonane-1,9-diyl)dioxy]bis[(11aS)-7-methoxy-2-methylene-1,2,3,11a-tetrahydro-5H-pyrrolo[2,1-c][1,4]benzodiazepine-5-one]], the GI50 in assay [1] (sub-table of 29a-c) stood at 20.9 nM. This compound also had a 50% effective concentration (EC50) with linear pBR322 DNA of 1500 nM. Further, the IC50 in assay [2] (setting [4]) was 33.8 nM.
